The results in this text go back to US20160355530A1, “HEPATITIS C INHIBITORS AND USES THEREOF” (AbbVie Inc., priority 2010, published 2016).

The test system of assay [1] is HCV 1b-Con1 subgenomic replicon. As to the kind of experiment: Stable replicon cell culture assay (luciferase), 1b-Con1; 5% FBS, optionally 40% human plasma. The class given is cell-based, HCV genotype 1b. The note with it: Hepatitis C virus. On the technique in general: In antiviral work, replicon cells carry a viral genome segment that copies itself.
Assay [2] has as its target T1, HCV NS5B polymerase 1a-H77-C316Y (Hepatitis C virus genotype 1a, UniProt P27958, C2736Y).
T1 construct: six-histidine tag; made in house; host or cells: E. coli
As to the kind of experiment: biochemical. The arrangement: species or system HCV genotype 1a. In outline: (§1)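 Recombinant NS5B (residues 1–570, His-tagged, E. coli-expressed) copied 5 nM of a 2.1 kb HCV 1b negative-strand 3′-end RNA template with 20 μM CTP, 20 μM ATP and 0.284 μM [3H]UTP for 3 h at 30 °C. Spermine-precipitated RNA was filter-captured and counted, and IC50 was fitted by nonlinear regression.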

For assay [3], the system named is HCV NS5B polymerase 1a-H77-C316Y. As to the kind of experiment: biochemical. The note with it: ratio of enzyme IC50s, 1a H77-C316Y / 1a H77. Also on record: species or system HCV genotype 1a. In outline:
as §1

In assay [4] the target is T2, HCV NS5B polymerase 1a-H77 (Hepatitis C virus genotype 1a, UniProt P27958).
T2 construct: six-histidine tag; made in house; host or cells: E. coli
T2 sequence (P27958 2421-2990): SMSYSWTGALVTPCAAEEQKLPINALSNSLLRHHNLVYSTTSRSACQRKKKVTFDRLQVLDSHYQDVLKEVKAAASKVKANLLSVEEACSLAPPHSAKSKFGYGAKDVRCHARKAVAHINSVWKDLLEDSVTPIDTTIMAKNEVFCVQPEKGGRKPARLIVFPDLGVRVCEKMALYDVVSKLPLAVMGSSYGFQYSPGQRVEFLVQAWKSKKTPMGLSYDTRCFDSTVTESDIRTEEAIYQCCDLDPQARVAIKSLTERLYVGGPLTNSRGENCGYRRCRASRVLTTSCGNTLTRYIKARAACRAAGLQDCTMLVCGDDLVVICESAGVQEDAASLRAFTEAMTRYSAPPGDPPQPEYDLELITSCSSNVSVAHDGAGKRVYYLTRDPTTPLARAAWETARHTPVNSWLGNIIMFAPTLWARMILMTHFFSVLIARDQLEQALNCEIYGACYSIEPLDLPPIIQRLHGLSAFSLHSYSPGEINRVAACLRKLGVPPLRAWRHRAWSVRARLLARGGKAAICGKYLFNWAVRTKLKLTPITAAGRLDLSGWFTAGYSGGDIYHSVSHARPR
Nature of the assay: biochemical. Also on record: species or system HCV genotype 1a. Conditions: enzyme, strain 1a H77; read-out: HCV Polymerase Strain 1a H77 IC50. The essentials:
as §1

The subject of assay [5] is HCV 1b-BB7 subgenomic replicon. As to the kind of experiment: microbe, parasite or virus in culture. The class given is cell-based, HCV genotype 1b. Conditions: Hepatitis C virus, stable replicon.
Setting [6] is: strain 1b Con1, 5% FBS + 40% human plasma, read-out: 1b Con1 5% FBS + 40% Human Plasma EC50.
The mark [7] stands for this setting: strain 1b Con1, 5% FBS, no human plasma, read-out: 1b Con1 5% FBS EC50.
[8] abbreviates: strain 1b Con1, 5% FBS, read-out: 1b Con1 5% FBS EC50.
[9] abbreviates: strain 1b BB7, 5% FBS + 40% human plasma, read-out: 1b BB7 5% FBS + 40% Human Plasma EC50.
The mark [10] stands for this setting: strain 1b BB7, 5% FBS, no human plasma, read-out: 1b BB7 5% FBS EC50.
Setting [11] is: strain 1b BB7, 5% FBS, read-out: 1b BB7 5% FBS EC50.

Read-outs that look alike come from different tables or passages of the source.

T1 sequence (P27958 2421-2990 C2736Y): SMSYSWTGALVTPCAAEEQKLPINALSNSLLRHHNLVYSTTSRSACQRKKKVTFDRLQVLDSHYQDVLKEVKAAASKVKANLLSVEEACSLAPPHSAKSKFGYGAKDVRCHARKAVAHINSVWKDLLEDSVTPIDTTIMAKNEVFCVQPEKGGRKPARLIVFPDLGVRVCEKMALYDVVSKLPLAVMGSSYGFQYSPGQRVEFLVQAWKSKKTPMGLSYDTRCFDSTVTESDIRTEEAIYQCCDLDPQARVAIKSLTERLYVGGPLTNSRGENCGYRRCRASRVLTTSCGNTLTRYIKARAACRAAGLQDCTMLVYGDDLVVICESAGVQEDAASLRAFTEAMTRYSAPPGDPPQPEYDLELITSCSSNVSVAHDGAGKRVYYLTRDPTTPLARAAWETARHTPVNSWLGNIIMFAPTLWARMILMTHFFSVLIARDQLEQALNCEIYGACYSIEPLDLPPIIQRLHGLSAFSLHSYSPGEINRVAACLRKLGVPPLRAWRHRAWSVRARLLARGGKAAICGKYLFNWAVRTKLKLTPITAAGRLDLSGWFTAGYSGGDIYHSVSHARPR

`CCCC/C=C/c1ccc(-c2oc3cc(N(CCCCS(C)(=O)=O)S(C)(=O)=O)c(C4CC4)cc3c2-c2ncc[nH]2)cc1` [Example 168, N-[5-cyclopropyl-2-{4-[(1E)-hex-1-en-1-yl]phenyl}-3-(1H-imidazol-2-yl)-1-benzofuran-6-yl]-N-[4-(methylsulfonyl)butyl]methanesulfonamide]: the EC50 (commonly the midpoint of the concentration-response curve) stood at 24.3 nM in assay [1] (setting [6]), 3.4 nM in assay [1] (setting [7]) and 3.4 nM in assay [1] (setting [8]). Besides, the results for the IC50 in assay [2] and in assay [4] were 8.5 nM and 4.9 nM, respectively. For the same molecule, the “C316Y/1a Fold Resistance” value in assay [3] is reported as 2 fold.

Turning to `CS(=O)(=O)N(CCO)c1cc2oc(-c3ccc(F)cc3)c(C3=NOCCN3)c2cc1C1CC1` [Example 136, N-[5-cyclopropyl-3-(5,6-dihydro-4H-1,2,4-oxadiazin-3-yl)-2-(4-fluorophenyl)-1-benzofuran-6-yl]-N-(2-hydroxyethyl)methanesulfonamide], the results for the 50% inhibitory concentration (IC50) in assay [2] and in assay [4] were 256 nM and 6.4 nM, respectively. Further, the “C316Y/1a Fold Resistance” value in assay [3] came out at 40 fold. In addition, the EC50 in assay [5] (setting [9]) is 281 nM; in assay [5] (setting [10]), 35 nM; in assay [5] (setting [11]) it was 35 nM.

Take `CS(=O)(=O)CCCCN(c1cc2oc(-c3ccc(Nc4ccccc4)cc3)c(-c3ncc[nH]3)c2cc1C1CC1)S(C)(=O)=O` [Example 169, N-[2-(4-anilinophenyl)-5-cyclopropyl-3-(1H-imidazol-2-yl)-1-benzofuran-6-yl]-N-[4-(methylsulfonyl)butyl]methanesulfonamide]: the EC50 in assay [1] (setting [6]) was found to be 34.4 nM; in assay [1] (setting [7]), 5 nM; in assay [1] (setting [8]), 4.5 nM. Moreover, the values for the concentration for half-maximal inhibition (IC50) in assay [2] and in assay [4] were 19.8 nM and 6 nM, respectively. Moreover, in assay [3], the “C316Y/1a Fold Resistance” value was 3 fold.

In the case of `CS(=O)(=O)N(CCO)c1cc2oc(-c3ccc(F)cc3)c(-c3ncc[nH]3)c2cc1C1CC1` [Example 109, N-[5-cyclopropyl-2-(4-fluorophenyl)-3-(1H-imidazol-2-yl)-1-benzofuran-6-yl]-N-(2-hydroxyethyl)methanesulfonamide], the IC50 (in general, the concentration needed to halve the response being measured) in assay [2] worked out at 536 nM; in assay [4], 5.9 nM. The “C316Y/1a Fold Resistance” value in assay [3] turned out to be 90 fold. In addition, the EC50 amounted to 184 nM in assay [5] (setting [9]), 12.7 nM in assay [5] (setting [10]) and 12.7 nM in assay [5] (setting [11]).
